Data reported in a melting point compilation (Tetko et al.; mined from patent text by program, amines drawn as free bases though some values may be those of a salt).

Compound | melting point
Cn1cc(C(=O)NCc2ccc(Cl)cc2)c(=O)c2cc(CC3CCOCC3)cc(C#CCO)c21 | 166 to 168 °C
CCCCC[C@@H](CNC(=O)Nc1c(OC(C)C)ccc2c1CCCC2)c1cccc2c1OCO2 | 115 °C
CC(=O)C=Cc1ccc2sccc2c1 | 75 °C
O=C(N[C@H]1CCCNC1=O)c1ccc(F)c(F)c1 | 202 to 204 °C
CCCCCCCCc1ccc(C(=O)NN)cc1 | 90 °C
CC(=NOCCOc1ccc(CC2SC(=O)N(C(c3ccccc3)(c3ccccc3)c3ccccc3)C2=O)cc1)c1ccc(N(C)S(=O)(=O)c2ccccc2)cc1 (stereo not drawn) | 143 to 145 °C
COC(=O)[C@H](Cc1cccc2ccccc12)NC(=O)[C@H](CC(=O)OC(C)(C)C)NC(=O)c1cccc(N)c1 | 70 to 72 °C
O=C1[C@H]2CCC[C@H]2N(C(=O)CBr)c2ccccc2N1Cc1ccc([N+](=O)[O-])cc1 (relative stereo) | 160 to 162 °C
CC(C)Cn1nc(OCCCc2ccc(OC(C)C)cc2OCc2ccc(Cl)cc2Cl)cc1CCC(=O)O | 133 to 134 °C
Cc1c(C)n(CC2CC2)c2c(CCc3ccc(F)cc3F)nncc12 | 159 to 160 °C
O=c1c2ccccc2n(SC(Cl)(Cl)Cl)c(=O)n1SC(Cl)(Cl)Cl | 154 to 156 °C
COC(=O)c1ccc(OC)c(C(C)=O)c1 | 54 to 58 °C
CCS(=O)c1nc(-c2ccccc2)c(-c2ccccc2)o1 (stereo not drawn) | 133 to 134 °C
CN(CCO)C(=O)Nc1ccc2c(c1)C(c1ccccc1F)=NCC(=O)N2C | 196 to 198 °C
O=C(O)COCCc1cc2cc(Cl)ccc2n1S(=O)(=O)c1ccccc1 | 135 to 137 °C
Cc1cc(N2NCCNC2=O)cc(Cl)c1C(O)c1ccc(Cl)cc1 (stereo not drawn) | 146 to 147 °C
CCCCSc1cc(C(=O)O)cc(N)c1-c1ccccc1 | 143 to 144 °C
Cc1nc2c(OCc3c(N)cccc3Cl)cccn2c1Br | 177 to 178 °C
COc1ccc(Cl)c2nc(SCc3ccccc3)nn12 | 90 to 91 °C
O=[N+]([O-])c1ccc(-c2noc(-c3ccccn3)n2)cc1 | 202 to 203 °C
CC(C)Cc1nc2ccc(Br)cc2c(-c2ccccc2)c1CN | 129 to 130 °C
COC(=O)C(=O)C(CCCc1ccccc1)CS(=O)(=O)c1ccc(OC)cc1 (stereo not drawn) | 95 °C
Cc1c(O)c(C)c(Cc2cc(C(C)(C)C)c(O)c(C(C)(C)C)c2)c(C)c1Cc1cc(C(C)(C)C)c(O)c(C(C)(C)C)c1 | 204 °C

Compound | melting point
CN1C(=O)CN(c2ccccc2)C1=S | 112 °C
COC(=O)C1CCN(Cc2ccc(-c3ccc4c(Nc5ccc(Sc6nccn6C)c(Cl)c5)c(C#N)cnc4c3)nc2)CC1 | 135 to 137 °C
COc1cc(OC)c(C2CCN(C)CC2=O)c(OC)c1 (single isomer, unassigned; (+)) | 110 to 112 °C
CCOC(=O)CCc1cn(Cc2ccc(OCc3nc(-c4ccccc4)oc3C)cc2)nc1-c1ccc(F)cc1 | 93 to 94 °C
CCOc1ccc2c(c1)C(c1ccccc1Cl)(N(C)C)C(=O)N2S(=O)(=O)c1ccc(NC(=O)N(CC)CC)cc1OC (stereo not drawn) | 212 to 214 °C
CCCC1CCCNC1=O (stereo not drawn) | 75 to 76 °C
CCCOc1ccc(F)cc1C(=O)C=CN(C)C | 43 to 46 °C
O=C(Nc1ccncc1)c1cccc(-c2ccc3c(c2)C(Oc2ccc(Cl)cc2Cl)CC3)c1 (stereo not drawn) | 226 to 227 °C
COc1c(NC(=O)c2ccc(-c3ccc(F)cc3)cc2)ccc2cc(CN3CCCC3)cnc12 | 142 to 144 °C
CCOC(=O)c1cc2c3n(ccc-2n1)C(Br)C=N3 (stereo not drawn) | 280 to 282 °C
CCOC(=O)C1Cc2cc3c(-c4ccccc4F)noc3cc2O1 (stereo not drawn) | 115 to 116 °C
CCC1C(=O)NC1C=COC(C)=O (stereo not drawn) | 102 °C
O=C(NC1CC1)c1cccc(-c2ccc3ccn(-c4ccc(Cl)cc4Cl)c3c2)c1 | 273 to 274 °C
O=C1C(CCO)Oc2ccccc2N1Cc1cccc([N+](=O)[O-])c1 (stereo not drawn) | 128 to 130 °C
COc1ccc(C2C(C(=O)/C=C/c3ccccc3)C(=O)CC(c3ccccc3)C2[N+](=O)[O-])cc1 (stereo not drawn) | 108 to 110 °C
CC1=CCc2c1sc1c2CN(c2ccccc2Cl)CC2N(C(=O)O)CCN12 (stereo not drawn) | 160 to 162 °C
CCC(=O)OCCOCn1cnc2c(=O)[nH]c(N)nc21 | 223 to 226 °C
Cc1ccccc1C(=O)N(c1ccccc1)c1ccc(OCCN(C)C)cc1 | 98.5 to 102 °C
Cc1ccc(N2CCCCC2)c(NC(=O)c2ccncc2)c1 | 142 to 144 °C
Cc1cc(F)ccc1Nc1nc(N(C)c2ccccc2)c2cc(OCCCN3CCOCC3)ccc2n1 | 119 to 120 °C
CC(C)(C(=O)c1ccc(S)cc1)N1CCOCC1 | 68 to 69 °C
COc1cc(C(C)C)c(Oc2cnc(NC(CO)CO)nc2N)cc1I | 158 to 159 °C
CCOc1ccc(C(=O)c2csc(-c3ccc(OCC)c(OCC)c3)n2)cc1OCC | 128 to 129 °C

Compound | melting point
CC1COCc2nc3c(N)nc4c(c3n21)CCCC4 (stereo not drawn) | 209 to 211 °C
CCOC(=O)C(Cc1ccc(OCCn2c(=O)sc3cc(C(=O)C4CC4)ccc32)cc1)OCC(F)(F)F (stereo not drawn) | 113 to 115 °C
Nc1ncccc1NCc1ccc(OCc2cccc(F)c2)cc1 | 91 to 93 °C
COC(=O)Cc1ccc(O)c(NC(=O)c2c(C)c(OC)c(C)c(C)c2OC)c1 | 98 to 100 °C
OC12CC3CC(CC(C3)C1=C1C3CC4CC(C3)CC1C4)C2 | 212 to 213 °C
CC(=O)c1c2c(c(C)[nH]c1=O)CC(c1ccccn1)CC2 (stereo not drawn) | 254 to 256 °C
CC1(C)CC(N2CCN(Cc3ccccc3)C2=O)c2cc(C#N)ccc2O1 (stereo not drawn) | 45 to 48 °C
NC(=NCC(F)(F)F)Nc1ccnc(OCCn2ccnc2)n1 | 149 to 150 °C
CNC(=O)c1nc(SC)n2c1CN=C(c1ccccc1Cl)c1cc(Cl)ccc1-2 | 224 to 227 °C
COc1ccc(Cl)cc1-c1c(NCn2nnc3ccccc32)c(=O)[nH]c2ccc(C(F)(F)F)cc12 | 217 to 219 °C
COC(=O)c1sc(-c2ccc(OCc3ccc([N+](=O)[O-])cc3)c(OC)c2)cc1NC(C)=O | 193 to 194 °C
N#CC1(N)CCC2Cc3ccccc3CC2C1 (stereo not drawn) | 128 °C
CC(C)(C)c1ccc(COc2ccc(S(=O)(=O)NC[C@@H](C(=O)NO)N3CCOCC3)cc2)cc1 | 137 °C
CCN1C(Cl)=NC(C)=NS1(=O)=O | 57 to 59 °C
Cc1cc(C)c2nc(COc3ccc(CC4SC(=O)N(C(c5ccccc5)(c5ccccc5)c5ccccc5)C4=O)cc3)n(C)c2n1 (stereo not drawn) | 96 to 99 °C
Fc1ccc2[nH]cc(C3=CCN(CC4CCc5ccc6ncccc6c5O4)CC3)c2c1 (stereo not drawn) | 148 °C
CN1C(=O)CC[C@]2(C)c3ccc(-c4ccc5ncccc5c4)cc3CC[C@@H]12 | 185 to 190 °C
COC(=O)C1(NC(=O)C2(Br)SC=C(Br)C2Br)CCCCCC1 (stereo not drawn) | 165 to 168 °C
O=C1CCN(Cc2ccccn2)CC1C(c1ccccc1)c1ccccc1 (stereo not drawn) | 100 °C
Cc1nc(N)c2nc(C)n(CCCCCS(=O)(=O)c3ccccc3)c2c1C | 166 to 167 °C
COc1ccc(/C=C/c2ccc3c(=O)[nH]ncc3c2)cc1 | 280 to 289 °C
NC(=O)Cc1cc(Oc2ccc3c(ccn3C(=O)Nc3ccc(N4CCNCC4)c(C(F)(F)F)c3)c2)ncn1 | 149 to 152 °C
